According to US4772587A, “Dipeptide derivative of fatty acid” (Suntory Limited, priority 1985, dated 1988):
Non-standard residues stand in square brackets, D forms with d. Residues, ends and D or L forms follow the SMILES beside them. *: point of attachment. Oleoyl = CCCCCCCC/C=C\CCCCCCCC(=O)*; Stearoyl = CCCCCCCCCCCCCCCCCC(=O)*; Palmitoyl = CCCCCCCCCCCCCCCC(=O)*; Nle = CCCC[CH](N)C(=O)O; Cbz = O=C(OCc1ccccc1)*

How the values were obtained:
[1] = tested on: experimental amnesia caused in rats by scopolamine; assay: Preventive effect against experimental amnesia caused in rats by scopolamine (passive avoidance learning); assay type: in vivo, Wister male rats; conditions: for Avoidance time 48 hrs. later: sample 1 mg/kg i.p., scopolamine 3 mg/kg i.p. after learning
[2] = molecular target: prolyl endopeptidase (Elizabethkingia meningoseptica, UniProt P27028); assay: Measurement of anti-prolyl endopeptidase activity (decomposition of Z-glycyl-proline-β-naphthylamide); assay type: biochemical; conditions: substrate Z-glycyl-proline-β-naphthylamide, phosphate buffer pH 7.0
prolyl endopeptidase, sequence (P27028 21-705): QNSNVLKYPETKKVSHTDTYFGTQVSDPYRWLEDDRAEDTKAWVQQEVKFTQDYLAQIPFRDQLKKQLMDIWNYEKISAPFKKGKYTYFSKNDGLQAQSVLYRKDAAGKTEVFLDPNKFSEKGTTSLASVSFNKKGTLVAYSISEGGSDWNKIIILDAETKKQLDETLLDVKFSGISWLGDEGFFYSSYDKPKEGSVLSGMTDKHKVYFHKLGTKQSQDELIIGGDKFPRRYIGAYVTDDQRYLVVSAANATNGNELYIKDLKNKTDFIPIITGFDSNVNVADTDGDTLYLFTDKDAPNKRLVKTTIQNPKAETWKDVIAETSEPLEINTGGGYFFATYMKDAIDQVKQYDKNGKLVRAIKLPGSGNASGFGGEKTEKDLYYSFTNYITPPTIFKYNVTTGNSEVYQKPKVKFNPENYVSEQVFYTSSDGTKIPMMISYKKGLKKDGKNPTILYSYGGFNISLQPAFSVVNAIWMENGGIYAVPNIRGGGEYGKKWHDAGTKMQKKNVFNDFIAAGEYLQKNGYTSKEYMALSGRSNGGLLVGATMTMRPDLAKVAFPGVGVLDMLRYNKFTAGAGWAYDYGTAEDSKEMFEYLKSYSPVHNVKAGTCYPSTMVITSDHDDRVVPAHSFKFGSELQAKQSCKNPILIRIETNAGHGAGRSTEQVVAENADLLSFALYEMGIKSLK
Protocol: The method of Yoshimoto and Tsuru (T. Yoshimoto and D. Tsuru, Agr. Biol. Chem. 42, 2417, 1978) was used to measure the anti-prolyl endopeptidase activities of several compounds of the present invention. A mixture of 0.0025M Z-glycyl-proline-β-naphthylamide (0.25 ml), 0.1M phosphate buffer (pH, 7.0; 0.99 ml) and a solution of a particular anti-prolyl endopeptidase compound (0.01 ml) was incubated in a test tube at 37° C. for 3 minutes. Thereafter, 0.1 ml of a solution of prolyl endopeptidase (0.2 U/ml) was added and the mixture was heated at 35° C. for 10 minutes. After the reaction, 2.0 ml of Triton X-100 in 1M acetate buffer (pH, 4.0) was added to the reaction mixture until the final concentration of the surfactant was 10%. The mixture was left at room temperature for 15 minutes and the absorbance (a) at 410 nm was measured.
A sample for blind test was prepared by using the buffer instead of the anti-prolyl endopeptidase compound and its absorbance (b) was also measured. The percent inhibition of prolyl endopeptidase was calculated by the formula: ((b-a)/b)×100, and the amount of a specific compound to achieve 50% inhibition (IC50) was determined.

[3] = tested on: experimental amnesia caused in rats by scopolamine; assay: Preventive effect against experimental amnesia caused in rats by scopolamine (passive avoidance learning); assay type: in vivo, Wister male rats; conditions: for Avoidance time 24 hrs. later / Avoidance time 48 hrs. later / No. of amnesic rats/No. of rats tested / Percentage amnesia: scopolamine 3 mg/kg i.p. after learning
Protocol: Several of the anti-prolyl endopeptidase compounds of the present invention were checked for their ability to prevent the inhibition of long-term memory fixation by scopolamine. Solutions of physiological saline (0.3 ml) that contained selected compounds of the present inventions in varying amounts ([…], 0.25 mg, 0.1 mg, 0.025 mg and 0.010 mg/kg) were administered intraperitoneally once a day to Wister male rats (100-120 g). One hour after the administration, electric shocks (1.7 mA) were applied to the rats so that they would acquire passive avoidance learning. Immediately thereafter, scopolamine was administered intraperitoneally to each rat in an amount of 3 mg per kg of body weight.
The result of the test was assessed both 24 hours and 48 hours after the administration of scopolamine. The number of amnesic rats and of sound rats was counted for each of the control group (rats to which the test compounds had not been administered but to which only scopolamine and physiological saline had been administered intraperitoneally and the treated group (rats to which both the test compound and scopolamine had been administered). The results are shown in Table 3.

[4] = administered orally (so in the source) in an amount of 0.1 mg/kg
[5] = administered orally (so in the source) in an amount of 1 mg/kg
[6] = administered orally (so in the source) in an amount of 0.025 mg/kg
[7] = dose of 0.01 mg/kg (orally as printed)

| Compound | anti-amnesic action (in words) [1, 4] | IC50 (amount of compound to achieve 50% inhibition) [2] | Avoidance time 24 hrs. later ([3]; sample 100 μg/kg i.p.) | Avoidance time 48 hrs. later ([3]; sample 100 μg/kg i.p.) | No. of amnesic rats/No. of rats tested ([3]; sample 100 μg/kg i.p.) | Percentage amnesia ([3]; sample 100 μg/kg i.p.) | Avoidance time 24 hrs. later ([3]; sample 25 μg/kg i.p.) | Avoidance time 48 hrs. later ([3]; sample 25 μg/kg i.p.) | No. of amnesic rats/No. of rats tested ([3]; sample 25 μg/kg i.p.) | Percentage amnesia ([3]; sample 25 μg/kg i.p.) | anti-amnesic action (in words) [1, 6] | other results |
| --- | --- | --- | --- | --- | --- | --- | --- | --- | --- | --- | --- | --- |
| CCCCCCCC/C=C\CCCCCCCC(=O)NC(C(=O)N1CCCC1C=O)C(C)C (stereo not drawn) [SUAM 1156, oleoyl-Val-Pro-CHO] (Oleoyl-Val-Pro-aldehyde; configuration not given here) | considerably excellent anti-amnesic action | 0.7 ng/test tube | 300 s | 276.4 s | 1/10 | 10% | – | – | – | – | – | Avoidance time 48 hrs. later [1]: 119.8 s; anti-amnesic action (in words) [3, 5]: no remarkable effect; Avoidance time 24 hrs. later ([3]; sample 250 μg/kg i.p.): 240.6 s; Avoidance time 48 hrs. later ([3]; sample 250 μg/kg i.p.): 226.0 s; No. of amnesic rats/No. of rats tested ([3]; sample 250 μg/kg i.p.): 2/10; Percentage amnesia ([3]; sample 250 μg/kg i.p.): 20%; Avoidance time 24 hrs. later ([3]; sample 1 mg/kg i.p.): 184.0 s; No. of amnesic rats/No. of rats tested ([3]; sample 1 mg/kg i.p.): 5/10; Percentage amnesia ([3]; sample 1 mg/kg i.p.): 50% |
| linoleoyl-Leu-Pro-CHO [SUAM 1157] | – | 0.6 ng/test tube | – | – | – | – | – | – | – | – | – | – |
| CCCCCCCC/C=C\CCCCCCCC(=O)NC(CC(C)C)C(=O)N1CCCC1C=O (stereo not drawn) [SUAM 1140, Oleoyl-Leu-Pro-CHO] (Oleoyl-Leu-Pro-aldehyde; configuration not given here) | considerably excellent anti-amnesic action | 0.8 ng/test tube | 300 s | 300 s | 0/5 | 0% | 300 s | 300 s | 0/5 | 0% | – | Avoidance time 48 hrs. later [1]: 103.0 s; anti-amnesic action (in words) [3, 5]: no remarkable effect; Avoidance time 24 hrs. later ([3]; sample 10 μg/kg i.p.): 185.0 s; Avoidance time 48 hrs. later ([3]; sample 10 μg/kg i.p.): 189.0 s; No. of amnesic rats/No. of rats tested ([3]; sample 10 μg/kg i.p.): 2/5; Percentage amnesia ([3]; sample 10 μg/kg i.p.): 40%; Avoidance time 24 hrs. later ([3]; sample 250 μg/kg i.p.): 263 s; Avoidance time 48 hrs. later ([3]; sample 250 μg/kg i.p.): 284 s; No. of amnesic rats/No. of rats tested ([3]; sample 250 μg/kg i.p.): 1/5; Percentage amnesia ([3]; sample 250 μg/kg i.p.): 20%; Avoidance time 24 hrs. later ([3]; sample 1 mg/kg i.p.): 73.0 s; No. of amnesic rats/No. of rats tested ([3]; sample 1 mg/kg i.p.): 3/5; Percentage amnesia ([3]; sample 1 mg/kg i.p.): 60% |
| CCCCCCCCCCCCCCCCCC(=O)NC(CC(C)C)C(=O)N1CCCC1C=O (stereo not drawn) [SUAM 1154, stearoyl-Leu-Pro-CHO] (Stearoyl-Leu-Pro-aldehyde; configuration not given here) | strong anti-amnesic action | 1.0 ng/test tube | 300 s | 300 s | 0/10 | 0% | – | – | – | – | – | – |
| CCCCCCCC/C=C\CCCCCCCC(=O)NC(CC(C)C)C(=O)NC(CC(C)C)C(=O)N1CCCC1C=O (stereo not drawn) [SUAM 1158, oleoyl-Leu-Leu-Pro-CHO] (Oleoyl-Leu-Leu-Pro-aldehyde; configuration not given here) | strong anti-amnesic action | 80.0 ng/test tube | 300 s | 300 s | 0/10 | 0% | 300 s | 300 s | 0/10 | 0% | excellent effect | – |
| CCCCCCCCCCCCCCCC(=O)NC(CC(C)C)C(=O)N1CCCC1C=O (stereo not drawn) [SUAM 1155, palmitoyl-Leu-Pro-CHO] (Palmitoyl-Leu-Pro-aldehyde; configuration not given here) | strong anti-amnesic action | 0.7 ng/test tube | 300 s | 300 s | 0/10 | 0% | – | – | – | – | – | – |
| CCCCCCCC/C=C\CCCCCCCC(=O)NC(CCSC)C(=O)N1CCCC1C=O (stereo not drawn) [SUAM 1214, oleoyl-Met-Pro-CHO] (Oleoyl-Met-Pro-aldehyde; configuration not given here) | – | 0.6 ng/test tube | 300 s | 276.4 s | 1/10 | 10% | 300 s | 300 s | 0/10 | 0% | considerably excellent anti-amnesic action | Avoidance time 48 hrs. later [1]: 103.0 s; anti-amnesic action (in words) [3, 5]: no remarkable effect; anti-amnesic action (in words) [3, 7]: remarkable anti-amnesic action; Avoidance time 24 hrs. later ([3]; sample 10 μg/kg i.p.): 300 s; Avoidance time 48 hrs. later ([3]; sample 10 μg/kg i.p.): 300 s; No. of amnesic rats/No. of rats tested ([3]; sample 10 μg/kg i.p.): 0/10; Percentage amnesia ([3]; sample 10 μg/kg i.p.): 0%; Avoidance time 24 hrs. later ([3]; sample 250 μg/kg i.p.): 240.6 s; Avoidance time 48 hrs. later ([3]; sample 250 μg/kg i.p.): 226.0 s; No. of amnesic rats/No. of rats tested ([3]; sample 250 μg/kg i.p.): 2/10; Percentage amnesia ([3]; sample 250 μg/kg i.p.): 20%; Avoidance time 24 hrs. later ([3]; sample 1 mg/kg i.p.): 73.0 s; No. of amnesic rats/No. of rats tested ([3]; sample 1 mg/kg i.p.): 6/10; Percentage amnesia ([3]; sample 1 mg/kg i.p.): 60% |
| CCCCCCCC/C=C\CCCCCCCC(=O)NC(CCCCNC(=O)OCc1ccccc1)C(=O)N1CCCC1C=O (stereo not shown) [SUAM 1216, oleoyl-Lys(Z)-Pro-CHO] (Oleoyl-Lys(Cbz)-Pro-aldehyde; configuration not given here) | – | 0.6 ng/test tube | – | – | – | – | – | – | – | – | – | – |
| CCCCCCCC/C=C\CCCCCCCC(=O)NC(C)C(=O)N1CCCC1C=O (stereo not shown) [SUAM 1092, oleoyl-Ala-pro-CHO] | – | 12.0 ng/test tube | – | – | – | – | – | – | – | – | – | – |
| CCCCCCCC/C=C\CCCCCCCC(=O)NC(CCCC)C(=O)N1CCCC1C=O (stereo not drawn) [SUAM 1166, oleoyl-norLeu-Pro-CHO] (Oleoyl-[Nle]-Pro-aldehyde; configuration not given here) | – | 0.8 ng/test tube | – | – | – | – | 300 s | 300 s | 0/10 | 0% | strong anti-amnesic action | – |
| CCCCCCCC/C=C\CCCCCCCC(=O)NC(CCC=O)C(=O)N1CCCC1C=O (stereo not shown) [SUAM 1217, oleoyl-Glu(CHO)-Pro-CHO] | – | 0.3 ng/test tube | – | – | – | – | – | – | – | – | – | – |
| CCCCCCCC/C=C\CCCCCCCC(=O)N1CCCC1C(=O)N1CCCC1C=O (stereo not drawn) [SUAM 1215, Oleoyl-Pro-Pro-CHO] (Oleoyl-Pro-Pro-aldehyde; configuration not given here) | – | 0.3 ng/test tube | – | – | – | – | 300 s | 300 s | 0/10 | 0% | strong anti-amnesic action | anti-amnesic action (in words) [3, 7]: strong anti-amnesic action; Avoidance time 24 hrs. later ([3]; sample 10 μg/kg i.p.): 300 s; Avoidance time 48 hrs. later ([3]; sample 10 μg/kg i.p.): 300 s; No. of amnesic rats/No. of rats tested ([3]; sample 10 μg/kg i.p.): 0/10; Percentage amnesia ([3]; sample 10 μg/kg i.p.): 0% |
